Laboratory results reported in paper PMC10873978, “Novel tetrahydroisoquinolines as DHFR and CDK2 inhibitors: synthesis, characterization, anticancer activity and antioxidant properties” (BMC Chemistry, 2024).
“Also recorded” adds a separate entry of the source.

Key:
MCF7 cell line = assay: In vitro cytotoxic activity, MTT method, MCF7; format: cell-based, human; settings: for IC50: Homo sapiens, MCF7, MCF7 cell line, MTT
Procedure: (§1) Cell lines: The in vitro human breast cancerous cell line (MCF7), lung cancerous cell lines (A549) and normal cell lines were purchased from Serum and Vaccine formulation in Cairo-Egypt.
(§2) In vitro cytotoxic activity of all synthesized compounds against two human breast cell line (MCF7) and lung cell lines (A549) was evaluated according to the MTT method. Firstly, Growth the cell line medium in 96 well tissue culture plate was injected with 10^5 cells/mL (100 uL/plate well) of the cell line and incubated at 37 °C for 24 h to develop a monolayer sheet then the formed growth medium was poured from 96 well microtiter plates after the confluent sheet of cells. […] Secondly, add 0.1 mL of each concentration tetrahydroisoquinoline sample to each plate. The plates were incubated at 37 °C. Thirdly MTT solution (5 mg/mL in PBS) is prepared. Add 20 µL of MTT solution to each well plates. And shaking in 150 rpm for 5 min, to mix the MTT into the media. Then incubate at (37 °C, 5% CO2) for 1–5 h. Finally read the optical density at 560 nm and subtract background at 620 nm.
(§3) In this work, doxorubicin was used as a positive control drug for comparison with the synthesized compounds under the same experimental conditions.

A549 cell line = assay: In vitro cytotoxic activity, MTT method, A549; settings: for IC50: Homo sapiens, read-out: IC50 ± SD
Procedure: as §1, §2, §3

[1] = DPPH scavenging antioxidant activity
Procedure: The antioxidant activity of ten compounds was determined using DPPH [32–34]. A solution 1: prepared by dissolving DPPH (0.002 g) in ethanol (50 mL etnanol). Solution 2: prepared by dissolving different weights 0.05, 0.01 g of each sample in 1 mL of DMSO then take 10 µL of each sample solution with 1 mL ethanol. Then mix 1 mL of solution 1 with 1 mL of solution 2 then vortex the resulting mixture in the dark for about 30 min. The absorbance of the mixture was measured by spectrophotometer at λmax = 517 nm against blank 1 mL absolute ethanol and compared to the ascorbic acid (Vitamin C).
Ten newly synthesized compounds were studied as in vitro antioxidants by measuring of their DPPH scavenging activity which is represented as a percentage % [32]^. Results are represented by mean ± SD of three replicates. […] The higher dose concentration of 0.05 μg/mL represents higher antioxidant activity. […] The high antioxidant activity is referred to the presence of C=O, NH2, and OH groups like ascorbic acid which can be easily oxidized and reduced and can be used as antioxidant drugs. (Fig. 8 and Table 9).

## CC(=O)C1C(c2ccc(N(C)C)cc2)c2c(C)[nH]c(=S)c(C#N)c2CC1(C)O (centres unmarked) [Compound 1, 7-Acetyl-4-cyano-1,6-dimethyl-6-hydroxy-8-(4-N,N-dimethylaminophenyl)-5,6,7,8-tetrahydroisoquinoline-3(2H)-thione]
MCF7 cell line
  IC50: 1857 ± 8 nM
MCF7 cell line; MCF7, 0.0487 µMol
  Toxicity %: 0.2745%
  Viability %: 99.73%
MCF7 cell line; MCF7, 0.0975 µMol
  Toxicity %: 0.3246%
  Viability %: 99.68%
MCF7 cell line; MCF7, 0.195 µMol
  Toxicity %: 0.4493%
  Viability %: 99.55%
MCF7 cell line; MCF7, 0.391 µMol
  Viability %: 91.95%
MCF7 cell line; MCF7, 0.781 µMol
  Toxicity %: 23.53%
  Viability %: 76.47%
MCF7 cell line; MCF7, 1.562 µMol
  Toxicity %: 46.08%
  Viability %: 53.92%
MCF7 cell line; MCF7, 3.125 µMol
  Toxicity %: 76.35%
  Viability %: 23.65%
MCF7 cell line; MCF7, 6.25 µMol
  Toxicity %: 86.93%
  Viability %: 13.07%
MCF7 cell line; MCF7, 12.5 µMol
  Toxicity %: 93.63%
  Viability %: 6.373%
MCF7 cell line; MCF7, 25 µMol
  Toxicity %: 97.3%
  Viability %: 2.696%
A549 cell line; A549, Conc. 0.0487 µMol
  Toxicity %: 1%
  Viability %: 99%
A549 cell line; A549, Conc. 0.0975 µMol
  Viability %: 98.2%
A549 cell line; A549, Conc. 0.195 µMol
  Toxicity %: 3%
  Viability %: 97%
A549 cell line; A549, Conc. 0.391 µMol
  Toxicity %: 7.89%
  Viability %: 92.11%
A549 cell line; A549, Conc. 0.781 µMol
  Toxicity %: 21.85%
  Viability %: 78.15%
A549 cell line; A549, Conc. 1.562 µMol
  Toxicity %: 34.99%
  Viability %: 65.01%
A549 cell line; A549, Conc. 3.125 µMol
  Toxicity %: 59.76%
  Viability %: 40.24%
A549 cell line; A549, Conc. 6.25 µMol
  Toxicity %: 76.21%
  Viability %: 23.79%
A549 cell line; A549, Conc. 12.5 µMol
  Toxicity %: 90.77%
  Viability %: 9.231%
A549 cell line; A549, Conc. 25 µMol
  Toxicity %: 96.84%
  Viability %: 3.156%
A549 cell line
  IC50: 2219 ± 2 nM
[1]; 0.01 µg/mL
  DPPH scavenging, inhibition (%): 61.01 ± 0.58%
[1]; 0.05 µg/mL
  DPPH scavenging, inhibition (%): 92.3 ± 0.44%
[1]; DPPH
  antioxidant activity compared with Vitamin C: higher result than Vitamin C; also recorded: higher antioxidant activity than Vitamin C

## CC(=O)C1C(c2ccc(N(C)C)cc2)c2c(C)nc3sc(C(=O)Nc4ccc(C)cc4)c(N)c3c2CC1(C)O (centres unmarked) [Compound 8b, 7-Acetyl-1-amino-5,8-dimethyl-8-hydroxy-6-(4-N,N-dimethylaminophenyl)-N-(4-tolyl)-6,7,8,9-tetrahydrothieno[2,3-c]isoquinoline-2-carboxamide]
MCF7 cell line
  IC50: 3800 ± 8 nM
MCF7 cell line; MCF7, Conc. 0.0487 µMol
  Toxicity %: 0.0678%
  Viability %: 99.9322%
MCF7 cell line; MCF7, Conc. 0.0975 µMol
  Toxicity %: 0.1234%
  Viability %: 99.8766%
MCF7 cell line; MCF7, Conc. 0.195 µMol
  Toxicity %: 0.2042%
  Viability %: 99.8%
MCF7 cell line; MCF7, Conc. 0.391 µMol
  Toxicity %: -0.2042%
  Viability %: 100.2%
MCF7 cell line; MCF7, Conc. 0.781 µMol
  Toxicity %: 2.124%
  Viability %: 97.88%
MCF7 cell line; MCF7, Conc. 1.562 µMol
  Toxicity %: 13.36%
  Viability %: 86.64%
MCF7 cell line; MCF7, Conc. 3.125 µMol
  Toxicity %: 24.63%
  Viability %: 75.37%
MCF7 cell line; MCF7, Conc. 6.25 µMol
  Toxicity %: 60.13%
  Viability %: 39.87%
MCF7 cell line; MCF7, Conc. 12.5 µMol
  Toxicity %: 88.07%
  Viability %: 11.93%
MCF7 cell line; MCF7, Conc. 25 µMol
  Toxicity %: 96.69%
  Viability %: 3.309%
A549 cell line; A549, Conc. 0.04875 µMol
  Toxicity %: 8.929%
A549 cell line; A549, Conc. 0.0975 µMol
  Toxicity %: 10.49%
A549 cell line; A549, Conc. 0.195 µMol
  Toxicity %: 12.58%
  Viability %: 87.42%
A549 cell line; A549, Conc. 0.391 µMol
  Toxicity %: 21.42%
  Viability %: 78.58%
A549 cell line; A549, Conc. 0.781 µMol
  Toxicity %: 51.95%
  Viability %: 48.05%
A549 cell line; A549, Conc. 1.562 µMol
  Toxicity %: 61.42%
  Viability %: 38.58%
A549 cell line; A549, Conc. 3.125 µMol
  Toxicity %: 70.69%
  Viability %: 29.31%
A549 cell line; A549, Conc. 6.25 µMol
  Toxicity %: 84.3%
  Viability %: 15.7%
A549 cell line; A549, Conc. 12.5 µMol
  Toxicity %: 93.25%
  Viability %: 6.746%
A549 cell line; A549, Conc. 25 µMol
  Toxicity %: 96.06%
  Viability %: 3.945%
A549 cell line
  IC50: 527 ± 2 nM

## CC(=O)C1C(c2ccc(N(C)C)cc2)c2c(C)nc3sc(C(=O)Nc4ccc(Cl)cc4)c(N)c3c2CC1(C)O (centres unmarked) [Compound 8c, 7-Acetyl-1-amino-N-(4-chlorophenyl)-5,8-dimethyl-8-hydroxy-6-(4-N,N-dimethyl-aminophenyl)-6,7,8,9-tetrahydrothieno[2,3-c]isoquinoline-2-carboxamide]
MCF7 cell line
  IC50: 215 ± 5 nM
MCF7 cell line; MCF7, Conc. 0.0487 µMol
  Toxicity %: 26.68%
  Viability %: 73.3223%
MCF7 cell line; MCF7, Conc. 0.0975 µMol
  Toxicity %: 30.4566%
  Viability %: 69.5434%
MCF7 cell line; MCF7, Conc. 0.195 µMol
  Toxicity %: 40.36%
  Viability %: 59.64%
MCF7 cell line; MCF7, Conc. 0.391 µMol
  Toxicity %: 60.25%
  Viability %: 39.75%
MCF7 cell line; MCF7, Conc. 0.781 µMol
  Toxicity %: 70.02%
  Viability %: 29.98%
MCF7 cell line; MCF7, Conc. 1.562 µMol
  Toxicity %: 85.7%
  Viability %: 14.3%
MCF7 cell line; MCF7, Conc. 3.125 µMol
  Toxicity %: 96.45%
  Viability %: 3.554%
MCF7 cell line; MCF7, Conc. 6.25 µMol
  Toxicity %: 96.57%
  Viability %: 3.431%
MCF7 cell line; MCF7, Conc. 12.5 µMol
  Toxicity %: 97.1%
  Viability %: 2.9%
MCF7 cell line; MCF7, Conc. 25 µMol
  Toxicity %: 96.94%
  Viability %: 3.064%
A549 cell line; A549, Conc. 0.04875 µMol
  Toxicity %: 10.24%
A549 cell line; A549, Conc. 0.0975 µMol
  Toxicity %: 14.26%
A549 cell line; A549, Conc. 0.195 µMol
  Toxicity %: 18.74%
  Viability %: 81.26%
A549 cell line; A549, Conc. 0.391 µMol
  Toxicity %: 47.14%
  Viability %: 52.86%
A549 cell line; A549, Conc. 0.781 µMol
  Toxicity %: 65.05%
  Viability %: 34.95%
A549 cell line; A549, Conc. 1.562 µMol
  Toxicity %: 75.74%
  Viability %: 24.26%
A549 cell line; A549, Conc. 3.125 µMol
  Toxicity %: 84.18%
  Viability %: 15.82%
A549 cell line; A549, Conc. 6.25 µMol
  Toxicity %: 89.35%
  Viability %: 10.65%
A549 cell line; A549, Conc. 12.5 µMol
  Toxicity %: 96.69%
  Viability %: 3.314%
A549 cell line; A549, Conc. 25 µMol
  Toxicity %: 97%
  Viability %: 2.998%
A549 cell line
  IC50: 332 ± 2 nM

## O=C1O[C@H]([C@@H](O)CO)C(O)=C1O [Vitamin C, ascorbic acid, reference compound]
[1]; 0.01 µg/mL
  DPPH scavenging, inhibition (%): 50.54 ± 2.76%
[1]; 0.05 µg/mL
  DPPH scavenging, inhibition (%): 69.90 ± 3.98%
